Our source for the IC50 values is ChEMBL document CHEMBL2331358, “Novel agmatine dipeptide inhibitors against the West Nile virus NS2B/NS3 protease: a P3 and N-cap optimization study” (Eur J Med Chem, 2013).

Broadly, the IC50 is the concentration at which inhibition is half-maximal. A low value points to higher potency.

The assay is described as follows: Inhibition of West Nile virus NS2B-NS3 serine protease using Pyr-RTKR-AMC as substrate incubated for 1 hr prior to substrate addition measured every 45 secs for 1 hr by fluorescence assay.
`CC(=O)N[C@@H](CCCCN)C(=O)N[C@@H](CCCCN)C(=O)NCCCCNC(=N)N` gave an IC50 of 18.2 µM.

Take `N=C(N)NCCCCNC(=O)[C@H](CCCCN)NC(=O)[C@H](CCCCN)NC(=O)Cc1cccc(-c2ccccc2)c1`: the IC50 is 9.9 µM.

`N=C(N)NCCCCNC(=O)[C@H](CCCCN)NC(=O)[C@H](Cc1ccc(O)cc1)NCC(=O)c1ccc(-c2ccccc2)cc1` had an IC50 of 33.5 µM.

Compound `N=C(N)NCCCCNC(=O)[C@H](CCCCN)NC(=O)[C@@H](N)CCCCN` gave an IC50 of 38.2 µM.

Regarding `CCC(=O)N[C@@H](CCCCN)C(=O)N[C@@H](CCCCN)C(=O)NCCCCNC(=N)N`, the IC50 amounted to 19.1 µM.

`CCCC(=O)N[C@@H](CCCCN)C(=O)N[C@@H](CCCCN)C(=O)NCCCCNC(=N)N` registered an IC50 of 18.5 µM.

As to `CC(C)CC(=O)N[C@@H](CCCCN)C(=O)N[C@@H](CCCCN)C(=O)NCCCCNC(=N)N`, the midpoint of inhibition, the IC50, lay at 19.2 µM.

`CC(C)C(=O)N[C@@H](CCCCN)C(=O)N[C@@H](CCCCN)C(=O)NCCCCNC(=N)N` yielded an IC50 of 23.8 µM.

`CC(C)(C)C(=O)N[C@@H](CCCCN)C(=O)N[C@@H](CCCCN)C(=O)NCCCCNC(=N)N`: the IC50 came to 27.1 µM.

For `N=C(N)NCCCCNC(=O)[C@H](CCCCN)NC(=O)[C@H](CCCCN)NC(=O)c1ccccc1`, the IC50 is 38.6 µM.

In turn, `N=C(N)NCCCCNC(=O)[C@H](CCCCN)NC(=O)[C@H](CCCCN)NC(=O)c1cccc2ccccc12` displayed an IC50 of 33.3 µM.

`N=C(N)NCCCCNC(=O)[C@H](CCCCN)NC(=O)[C@H](CCCCN)NC(=O)c1ccc2ccccc2c1` registered an IC50 of 32.5 µM.

`N=C(N)NCCCCNC(=O)[C@H](CCCCN)NC(=O)[C@H](CCCCN)NC(=O)Cc1ccccc1` had an IC50 of 8.5 µM.

The compound `N=C(N)NCCCCNC(=O)[C@H](CCCCN)NC(=O)[C@H](CCCCN)NC(=O)CCc1ccccc1` displayed an IC50 of 42.2 µM.

On to `N=C(N)NCCCCNC(=O)[C@H](CCCCN)NC(=O)[C@H](CCCCN)NC(=O)CCCc1ccccc1`, for which the IC50 was 11.2 µM.

On to `N=C(N)NCCCCNC(=O)[C@H](CCCCN)NC(=O)[C@H](CCCCN)NC(=O)Cc1ccccc1Cl`, for which the midpoint of inhibition, the IC50, lay at 2.6 µM.

As to `N=C(N)NCCCCNC(=O)[C@H](CCCCN)NC(=O)[C@H](CCCCN)NC(=O)Cc1cccc(Cl)c1`, the midpoint of inhibition, the IC50, lay at 9.6 µM.

For the compound `N=C(N)NCCCCNC(=O)[C@H](CCCCN)NC(=O)[C@H](CCCCN)NC(=O)Cc1ccc(Cl)cc1`, the midpoint of inhibition, the IC50, lay at 4.8 µM.

With `Cc1ccccc1CC(=O)N[C@@H](CCCCN)C(=O)N[C@@H](CCCCN)C(=O)NCCCCNC(=N)N`, the IC50 was 6.8 µM.

The compound `Cc1cccc(CC(=O)N[C@@H](CCCCN)C(=O)N[C@@H](CCCCN)C(=O)NCCCCNC(=N)N)c1` displayed an IC50 of 9.2 µM.

Compound `Cc1ccc(CC(=O)N[C@@H](CCCCN)C(=O)N[C@@H](CCCCN)C(=O)NCCCCNC(=N)N)cc1` yielded an IC50 of 6.9 µM.

In turn, `N=C(N)NCCCCNC(=O)[C@H](CCCCN)NC(=O)[C@@H](CCCCN)NCC(=O)c1ccc(-c2ccccc2)cc1` gave an IC50 above 100 µM.

In the case of `N=C(N)NCCCCNC(=O)[C@H](CCCCN)NC(=O)CNCC(=O)c1ccc(-c2ccccc2)cc1`, the IC50 was above 100 µM.

`C[C@H](NCC(=O)c1ccc(-c2ccccc2)cc1)C(=O)N[C@@H](CCCCN)C(=O)NCCCCNC(=N)N` came in with an IC50 of 53.7 µM.

Turning to `CC(C)[C@H](NCC(=O)c1ccc(-c2ccccc2)cc1)C(=O)N[C@@H](CCCCN)C(=O)NCCCCNC(=N)N`, the IC50 was above 100 µM.

For the compound `CC(C)C[C@H](NCC(=O)c1ccc(-c2ccccc2)cc1)C(=O)N[C@@H](CCCCN)C(=O)NCCCCNC(=N)N`, the IC50 was above 100 µM.

The compound `CCCC[C@H](NCC(=O)c1ccc(-c2ccccc2)cc1)C(=O)N[C@@H](CCCCN)C(=O)NCCCCNC(=N)N` displayed an IC50 of 47.9 µM.

Turning to `N=C(N)NCCCCNC(=O)[C@H](CCCCN)NC(=O)[C@@H]1CCCN1CC(=O)c1ccc(-c2ccccc2)cc1`, the IC50 was above 100 µM.

In turn, `N=C(N)NCCCCNC(=O)[C@H](CCCCN)NC(=O)[C@H](CC(N)=O)NCC(=O)c1ccc(-c2ccccc2)cc1` came in with an IC50 above 100 µM.

`N=C(N)NCCCCNC(=O)[C@H](CCCCN)NC(=O)[C@H](CCC(N)=O)NCC(=O)c1ccc(-c2ccccc2)cc1` had an IC50 above 100 µM.

As to `N=C(N)NCCCCNC(=O)[C@H](CCCCN)NC(=O)[C@H](CO)NCC(=O)c1ccc(-c2ccccc2)cc1`, the IC50 is above 100 µM.

Take `N=C(N)NCCCCNC(=O)[C@H](CCCCN)NC(=O)[C@H](CC(=O)O)NCC(=O)c1ccc(-c2ccccc2)cc1`: the IC50 is above 100 µM.

Take `N=C(N)NCCCCNC(=O)[C@H](CCCCN)NC(=O)[C@H](CCC(=O)O)NCC(=O)c1ccc(-c2ccccc2)cc1`: the IC50 was above 100 µM.

Compound `N=C(N)NCCCCNC(=O)[C@H](CCCCN)NC(=O)[C@H](CCCNC(=N)N)NCC(=O)c1ccc(-c2ccccc2)cc1` yielded an IC50 of 19.1 µM.

In turn, `N=C(N)NCCCCNC(=O)[C@H](CCCCN)NC(=O)[C@H](Cc1cnc[nH]1)NCC(=O)c1ccc(-c2ccccc2)cc1` returned an IC50 above 100 µM.

In turn, `N=C(N)NCCCCNC(=O)[C@H](CCCCN)NC(=O)[C@H](Cc1ccccc1)NCC(=O)c1ccc(-c2ccccc2)cc1` displayed an IC50 of 44.5 µM.

For `N=C(N)NCCCCNC(=O)[C@H](CCCCN)NC(=O)[C@H](CCCCN)NCC(=O)c1ccc(-c2ccccc2)cc1`, the IC50 was 4.7 µM.

Take `CC(=O)N[C@@H](CCCCN)C(=O)NCCCCNC(=N)N`: the IC50 is above 100 µM.
